Test results as given in PMC9603750, “Chalcone-Acridine Hybrid Suppresses Melanoma Cell Progression via G2/M Cell Cycle Arrest, DNA Damage, Apoptosis, and Modulation of MAP Kinases Activity” (International Journal of Molecular Sciences, 2022).

Legend:
BLM = test: MTT assay (metabolic activity); assay type: cell-based, human
Protocol: (§1) Cell lines A2058 (human melanoma lymph node metastasis, cat. 91100402) from ECACC (Public Health England, Salisbury, UK) and BLM (human melanoma lung metastasis a gift from prof. K. Smetana, Institute of Anatomy, Charles University in Prague) were cultured in a medium consisting of high glucose Dulbecco’s Modified Eagle’s Medium (DMEM) and sodium pyruvate (GE Healthcare, Piscataway, NJ, USA). The growth medium was supplemented with a 10% fetal bovine serum (FBS) and antibiotic/antimycotic solution 1 × HyClone™ (GE Healthcare, Chicago, IL, USA). The MCF-10A (human mammary epithelial cells) cell line was cultured in a medium consisting of high glucose Dulbecco’s Modified Eagle’s Medium F12 (DMEM/F12) (Biosera, Kansas City, MO, USA). The growth medium was supplemented with a 10% FBS, antibiotic/antimycotic solution 1 × HyClone™ (GE Healthcare, Chicago, IL, USA), epidermal growth factor (EGF) (20 ng/mL final), hydrocortisone (0.5 μg/mL final) and insulin (10 μg/mL final) (Sigma-Aldrich Chemie, Steinheim, Germany). Cells were cultured in humidified air at 37 °C with atmosphere containing 5% CO2.
(§2) The half-maximal inhibitory concentration values (IC50) and metabolism inhibition of tested synthetic chalcone derivatives were determined by MTT (3-(4,5-di-methylthiazol-2-yl)2,5-diphenyltetrazolium bromide) colorimetric assay (Sigma-Aldrich Chemie, Steinheim, Germany). Tested cell lines were seeded at a density of 5 × 10^3 cells/well in 96-well culture plates. After 24 h, the tested chalcones in concentrations of 100, 50 and 10 μmol/L were added and incubation proceeded for the next 72 h. In the next step, 10 μL of MTT (5 mg/mL) was added to each well containing cells and incubated for another 4 h at 37 °C during which MTT was metabolized to insoluble formazan in cells. After 4 h, 100 μL of a 10% sodium dodecyl sulphate (SDS) was added to each well and another 24 h were allowed for the formazan crystals to dissolve. The metabolic activity of cells was evaluated by measuring the absorbance at wavelength 540 nm using the automated Cytation™ 3 Cell Imaging Multi-Mode Reader (Biotek, Winooski, VT, USA). Three independent analyses were performed.

A2058 = test: MTT assay (metabolic activity); assay type: cell-based, human
Protocol: as §1, §2

BLM melanoma cells [1] = test: Flow cytometric analysis of cytochrome c release; assay type: cell-based, human; conditions: 1C 20 μmol/L, 24, 48 and 72 h
Protocol: (§3) The A2058 and BLM melanoma cells were seeded 1 × 10^6 in Petri dishes with complete growth medium and cultivated for 24 h. After cell cultivation, the A2058 cells were treated with chalcone 1C at 10 μmol/L concentration, BLM cells at 20 μmol/L concentration and both melanoma cell lines were treated with DMSO as the negative control at the same concentrations for 24, 48 and 72 h. Adherent and floating cells were harvested, pelleted by centrifugation at 1200 rpm for 5 min. Pellets were resuspended in washing buffer (PBS) and divided for a particular analysis. Afterwards, cells were prepared according to assay kit protocols or fixed with cold 4% paraformaldehyde (15 min) and permeabilized with 90% methanol (10 min on ice) with washing steps (PBS) and stained prior to analysis (Table 5) for 15 min in the dark at room temperature. Fluorescence was detected using a BD FACSCalibur^TM Flow Cytometer (Becton Dickinson, San Jose, CA, USA).

A2058 melanoma cells [2] = test: Flow cytometric analysis of cytochrome c release; assay type: cell-based, human; conditions: A2058, 1C 10 μmol/L, 24, 48 and 72 h
Protocol: as §3

BLM melanoma cells [3] = test: Flow cytometric analysis of mitochondrial membrane potential (TMRE); assay type: cell-based, human; conditions: 1C 20 μmol/L, 24, 48 and 72 h
Protocol: as §3

A2058 melanoma cells [4] = test: as above; assay type: cell-based, human; conditions: A2058, 1C 10 μmol/L, 24, 48 and 72 h
Protocol: as §3

MCF-10A = test: BrdU cell proliferation assay; assay type: cell-based; conditions: Homo sapiens; MCF-10A noncancer cell line
BLM melanoma cells [5] = test: Flow cytometric analysis of caspase-3/7 activity; assay type: cell-based, human; conditions: 1C 20 μmol/L, 24, 48 and 72 h
Protocol: as §3

A2058 melanoma cells [6] = test: Flow cytometric analysis of caspase-3/7 activity; assay type: cell-based, human; conditions: A2058, 1C 10 μmol/L, 24, 48 and 72 h
Protocol: as §3

BLM melanoma cells [7] = test: Flow cytometric analysis of DNA damage (ATM, SMC1, H2A.X phosphorylation); assay type: cell-based, human
Protocol: as §3

A2058 melanoma cells [8] = test: as above; assay type: cell-based, human
Protocol: as §3

A2058 melanoma cells [9] = test: Apoptosis detection, Annexin V/PI staining; assay type: cell-based, human; conditions: A2058, 1C 10 μmol/L
Excerpt: Phosphatidylserine (PS) is an anionic phospholipid located on the cytoplasmic surface of the plasma membrane in cells with intact membranes. The externalization of PS from the inner to outer surface of the lipid bilayer of plasma membrane is a typical marker of apoptosis in the early stages. Annexin V/PI double staining is a method for dividing cells into populations of living (An^−/PI^− Q3), early apoptotic (An^+/PI^− Q4), late apoptotic/necrotic (An^+/PI^+ Q2) and dead (An^−/PI^+ Q1). […] Furthermore, the concomitant decrease of living cells and the increased number of dead cells were also observed in a time-dependent pattern (Table 4, Figure 4).
To perform apoptosis detection, A2058 and BLM melanoma cells were seeded in Petri dishes at a density of 1 × 10^5/dish and treated with chalcone 1C and DMSO as the negative control at the same concentrations for 24, 48 and 72 h. In the next step, adherent and floating melanoma cells were harvested, centrifuged and pellets were resuspended in washing buffer (PBS). Resuspended melanoma cells were stained with Annexin V-Alexa Fluor® 647 antibody (Thermo Scientific, Rockford, IL, USA) in binding buffer for 20 min in the dark at room temperature. Finally, melanoma cells were washed, stained with 1 μL of propidium iodide (final concentration 25 μg/mL) for 5 min and analysed using a BD FACSCalibur^TM Flow Cytometer (Becton Dickinson, San Jose, CA, USA). Three independent analyses were performed.

[10] = A2058, 1C 10 μmol/L, 24, 48 and 72 h

COc1cccc(OC)c1C(=O)/C=C/c1c2ccccc2nc2ccccc12 [Compound 1C, (2E)-3-(acridin-9-yl)-1-(2,6-dimethoxyphenyl)prop-2-en-1-one]
IC50 (BLM; Homo sapiens, BLM, 72 h incubation): 17.9 ± 0.87 µM
Selectivity index, BLM (MTT) (BLM; MCF-10A vs BLM, calculated on the basis of MTT results): 2.0
IC50 (A2058; Homo sapiens, A2058, 72 h incubation): 7.96 ± 0.38 µM
Selectivity index, A2058 (MTT) (A2058; MCF-10A vs A2058, calculated on the basis of MTT results): 4.6
Cytochrome c release (BLM melanoma cells [1]): significant release of cytochrome c
Cytochrome c release (A2058 melanoma cells [2]): significant release of cytochrome c
Cells with reduced mitochondrial membrane potential (MMP) (BLM melanoma cells [3]): significant increase
Cells with reduced mitochondrial membrane potential (MMP) (A2058 melanoma cells [4]): significant increase
IC50 (MCF-10A): 32.9 ± 1.56 µM
Caspase-3/7 activity in apoptotic cells (BLM melanoma cells [5]): significant activity
Caspase-3/7 activity in apoptotic cells (A2058 melanoma cells [6]): significant activity
Phosphorylation of H2A.X (BLM melanoma cells [7]; 1C 20 μmol/L, 24, 48 and 72 h): significantly induced
Phosphorylation of SMC1 (BLM melanoma cells [7]; 1C 20 μmol/L, 24, 48 and 72 h): significant phosphorylation
Phosphorylation of ATM (BLM melanoma cells [7]; 1C 20 μmol/L, time-dependent (24, 48 and 72 h)): significantly induced
Phosphorylation of H2A.X (A2058 melanoma cells [8]; [10]): significantly induced
Phosphorylation of SMC1 (A2058 melanoma cells [8]; [10]): significant phosphorylation
Phosphorylation of ATM (A2058 melanoma cells [8]; A2058, 1C 10 μmol/L, time-dependent (24, 48 and 72 h)): significantly induced
Dead An−/PI+ (A2058 melanoma cells [9]; 24 h): 3.41 ± 0.46
Early Apo An+/PI− (A2058 melanoma cells [9]; 24 h): 7.53 ± 1.17
Late Apo An+/PI+ (A2058 melanoma cells [9]; 24 h): 4.22 ± 0.47
Live An−/PI− (A2058 melanoma cells [9]; 24 h): 84.80 ± 0.24
Dead An−/PI+ (A2058 melanoma cells [9]; 48 h): 5.94 ± 0.52
Early Apo An+/PI− (A2058 melanoma cells [9]; 48 h): 11.52 ± 0.42
Late Apo An+/PI+ (A2058 melanoma cells [9]; 48 h): 13.85 ± 2.57
Live An−/PI− (A2058 melanoma cells [9]; 48 h): 68.70 ± 1.63
Dead An−/PI+ (A2058 melanoma cells [9]; 72 h): 11.65 ± 1.43
Early Apo An+/PI− (A2058 melanoma cells [9]; 72 h): 13.30 ± 1.71
Late Apo An+/PI+ (A2058 melanoma cells [9]; 72 h): 23.05 ± 4.94
Live An−/PI− (A2058 melanoma cells [9]; 72 h): 52.00 ± 5.23
